{"source": "patent US20130302422A1", "about": "“PHARMACEUTICAL COMPOSITION FOR TREATMENT AND PREVENTION OF KIDNEY DISEASES” (KT & G CORPORATION, priority 2007, published 2013)", "key": {"[1]": {"test_system": "diabetic nephropathy-induced animals", "test": "Diabetic nephropathy model in ZDF rats (Experimental Example 2)", "format": "in vivo, Zucker diabetic fatty (ZDF) rats", "conditions": "250 mg/kg oral", "text": "When the blood glucose level is elevated, glucose in the blood partially binds to hemoglobin in red blood cells, producing glycosylated hemoglobin (termed HbAlc). When glycosylated hemoglobin is formed, the corresponding red blood cells will retain HbAlc until the red blood cells complete their lives to be destroyed. […] The HbAlc reflect a blood glucose value over a relatively long period of time, so the measurement of the HbAlc level may be a useful indicator of how well diabetes has been therapeutically controlled over the past several months.\nAn increase in the rate of excretion of albumin in the urine is the most preceding clinical finding in diabetic nephropathy. Therefore, an increased level of urine albumin is an indicator of renal or hepatic diseases.\n8-week-old male Zucker diabetic fatty (ZDF) rats (Charles River Laboratory) were divided into four groups as given in Table 2 below: Vehicle, MB660 (250 mg/kg), Pair-fed, and Rosi (6 mg/kg). Animals were orally given test samples.\nDiabetic nephropathy model animals were fed with a low-fat feed (11.9 kcal % fat, 5053, Labdiet). Animals with a blood glucose level of 300 mg/dl and a body weight (BW) of more than 300 g were selected and treated with test samples for 4 and 8 weeks, respectively (total 12 and 16 weeks old). In-vivo changes in glycosylated hemoglobin (HbAlc), urine albumin and urine protein (1,000× urine albumin/urine creatinine) associated with kidney diseases were observed. Albumin was measured using an immunoturbidimetric assay, and creatinine was measured using a Jaffe rate method."}, "[2]": {"test_system": "acute renal failure-induced animals", "test": "Acute renal failure induced by ischaemia/reperfusion injury in rats (Experimental Example 1)", "format": "in vivo, Sprague-Dawley rats", "text": "Creatine is non-enzymatically converted into creatinine that is a waste product of muscle energy metabolism. Creatinine is a waste by-product and is therefore filtered by the kidney, but not reabsorbed. Since the muscle mass is generally maintained at a constant level and is less susceptible to other organs except for the kidney, a serum creatinine level is a good marker of the glomerular filtration rate. A higher creatinine concentration reflects more significant impairment of renal function. For example, a two-fold increase of the creatinine level represents a 50% decrease of the glomerular filtration rate.\nAccumulation of toxic ammonia in the body is prevented in a manner that ammonia is produced by deamination of amino acids during a protein metabolic process and is then converted into urea in the liver. When excretory function of the kidney is compromised, the blood urea nitrogen level is elevated. Therefore, measurement of BUN is an important indicator to examine whether the kidney is normally functional or not. When the BUN level is elevated over a normal value, the subject is suspected to have acute nephritis, chronic nephritis, prostate hyperplasia or the like. When the BUN level is dropped below a normal value, the subject is suspected to have diabetes insipidus, muscular dystrophy or the like.\nAmong compounds of Formula 1, effects of 7,8-dihydro-2,2-dimethyl-2H-naphtho(2,3-b)dihydropyran-7,8-dione (hereinafter, referred to as “compound of Example 1”) on acute renal failure were examined. For this purpose, 6-week-old male Sprague-Dawley rats, weighing 200 to 220 g (Japan SLC, Inc., Japan) were divided into two groups as given in Table 1 below: a vehicle-treated control group and a group received the compound of Example 1 (200 mg/kg). Animals were given test samples by the oral route. […]\nFollowing the IR induction, 0.2 mL of serum was sampled from each animal on +1 day, +3 day and +5 day, respectively. Creatinine and BUN (blood urea nitrogen) levels were measured with an automatic biochemical analyzer (HITACHI, 7020)."}}}
{"smiles": "CC1(C)CCC2=C(O1)c1ccccc1C(=O)C2=O", "note": "[Example 1, 7,8-dihydro-2,2-dimethyl-2H-naphtho(2,3-b)dihydropyran-7,8-dione]", "values": [{"measurement": "glycosylated hemoglobin (HbAlc)", "setting": "[1]; treated 4 and 8 weeks (FIG. 3)", "value": "significantly low"}, {"measurement": "urine albumin level", "setting": "[1]; treated 4 and 8 weeks, compared with Rosiglitazone 6 mg/kg group (FIG. 5)", "value": "lower"}, {"measurement": "daily urine protein level (1000× urine albumin/urine creatinine)", "setting": "[1]; treated 4 and 8 weeks, compared with Rosiglitazone 6 mg/kg group (FIG. 6)", "value": "lower"}, {"measurement": "left kidney weight", "setting": "[1]; treated 4 and 8 weeks, vs diabetic nephropathy-induced control group (FIG. 4)", "value": "significant decrease"}, {"measurement": "serum creatinine level", "setting": "[2]; 200 mg/kg oral for two weeks before IR induction, serum on +1, +3, +5 day, vs control group, most prominent after 3 days of reperfusion (FIG. 1)", "value": "significantly decreased"}, {"measurement": "serum BUN (blood urea nitrogen) level", "setting": "[2]; 200 mg/kg oral for two weeks before IR induction, serum on +1, +3, +5 day, vs control group, most remarkable after 3 days of reperfusion (FIG. 2)", "value": "significant reduction"}, {"measurement": "glomerular filtration rate", "setting": "[2]; 200 mg/kg oral, inferred from serum creatinine and BUN results", "value": "elevation"}]}
